{"source": "patent US8617567B2", "about": "“Fungus polyose composition with immunity enhancing effect and application thereof” (priority 2009, dated 2013)", "test_system": "S180 cancer bearing mice", "conditions": "S180 NIH mice, 100 mg/kg intraperitoneal, 2 times per week, 11 days", "method": "85 healthy NIH mice, unisexual, were selected. […] The other 55 mice were used for solid tumor test.\nAt the beginning of the experiment, 20 mice with ascites were selected and sacrificed by pulling the cervical vertebrae on a sterilized bench, then the abdomens were sterilized with iodine tinctur, 75% alcohol q-tips in turn. The ascites were collected with 3 ml asepsis disposable syringe and put in asepsis dry conical flask and stored on the ice. […] It should be noted that the ascites collected were a milk-yellow or milk-white fluid, and the ascites with a larger quantity of RBC should be discarded. After the ascites were diluted 100 times, the cell density was measured to about 2×10^7/ml by the method of Trypan Blue count. The ascites were diluted with saline. The diluted ascites were subcutaneously injected, at a dosage of 0.2 ml, into the right armpit of each mouse.\nAfter all qualified 55 mice were injected, they were randomly divided into 5 groups: the blank control group, the compound fungus polyose low-, medium-, and high-dosage groups, and the positive cyclophosphamide control group, respectively. 11 mice were in each group. […] After 11 days of administration, all mice were sacrificed and their body weights, tumor weights, thymic weights, and spleen weights were measured. After the end of the experiment, statistical treatment of data was carried out to compare the difference among the groups. Thymus (spleen) index=Thymus (spleen) weight/Body weight×10 g Body Weight Changes=Body weight after administration−Body weight before administration Inhibition ratio %=(Tumor weight in blank group−Tumor weight in treatment group)/Tumor weight in blank group×100% 4.2 Mice Immune Function Test 4.2.1 Mice Carbon Clearance Test", "data": [{"smiles": "O=P1(N(CCCl)CCCl)NCCCO1", "note": "(centres unmarked) [Cyclophosphamide]", "values": [{"measurement": "Condition of thymus and spleen", "result": "obvious atrophy"}, {"measurement": "Spleen index", "result": "0.0322 ± 0.0190", "unit": "g/10 g"}, {"measurement": "Thymus index", "result": "0.0117 ± 0.0041", "unit": "g/10 g"}, {"measurement": "Tumor weight", "result": "0.0502 ± 0.0253", "unit": "g"}, {"measurement": "Anti-tumor ratio", "setting": "vs blank control", "result": 95.9, "unit": "%"}]}]}
